Assay [1] concerns Leishmania amazonensis promastigotes. The assay can be described thus: Anti-promastigote activity (XTT). The format is cell-based. Conditions: read-out: IC50 Promastigotes. How it is done: L. amazonensis (WHOM/BR/75/Josefa) promastigotes were cultured at 26°C in Schneider insect medium (Sigma), 10% fetal calf serum (Gibco-BRL, MD, US.) and 20 μg/mL of gentamycin (Schering-Plough, Rio de Janeiro, Brazil).
The leishmanicidal properties of the analogs were evaluated by measuring promastigotes’ mitochondrial activity using the XTT method with 2,3-bis-[2-methoxy-4-nitro-5-sulphophenyl]-2H-tetrazolium-5-carboxanilida, Sigma) as described previously. […] Sodium azide (10 μM) was used as a control, and the reaction product was read at 450 nm.
(In general: Tetrazolium dyes change colour on reduction, which living cells bring about.)

Assay [2] shares this test system. The assay can be described thus: Annexin V binding assay. The class given is cell-based. Particulars: 48 h; piceatannol 100 μM, miltefosine 30 μM. How it is done: Double staining for annexin V-fluorescein isothiocyanate (FITC) and PI was performed with the Annexin-V apoptosis detection kit (Molecular Probes). […] They were then washed twice in cold annexin V-buffer and centrifuged at 2760 x g for 10 min. Pellets were resuspended in 20 μL of annexin V FITC, and after 15 min of incubation in the dark, 480 μL of annexin V-buffer was added according to the manufacturer instructions. Annexin V-FITC labeling was recorded on a BD FACScalibur (Becton and Dickson) and analyzed using CellQuest software.

Assay [3] relates to murine peritoneal macrophages. The assay can be described thus: Nitric oxide production by macrophages (Griess). The format is cell-based, mouse. How it is done:
Thioglycolate-stimulated peritoneal macrophages were obtained as described above (10^6 cells/well in 24-well plate) and were activated with 1 μg/ml LPS (Sigma-Aldrich) or left untreated. […] The nitrite concentrations in the culture supernatants were determined using the Griess method. The reaction was read at 540 nm, and the concentration of NO2 ^- determined using a standard curve of sodium nitrite. The results are expressed as micromolar concentrations of nitrite.
A general note: Griess reagent forms a coloured azo dye with nitrite.

The subject of assay [4] is L. amazonensis intracellular amastigotes. The assay can be described thus: Anti-amastigote activity in infected macrophages. The class given is cell-based, Leishmania amazonensis. Conditions: for IC50: L. amazonensis in murine peritoneal macrophages, 24 h treatment; for SI (selectivity index; therapeutic index): ratio of CC50 on murine peritoneal macrophages to IC50 on L. amazonensis intracellular amastigotes. How it is done: Mice peritoneal macrophages obtained after stimulation with thioglycolate for 3 days were harvested in RPMI 1640 medium (LGC Biotecnologia, São Paulo, Brazil), 20 μg/mL of gentamycin and were plated onto 13 mm^2 coverslips inside 24-well plates for adherence for 2 h at 37°C, 5% CO2. Non-adherent cells were removed, and the macrophages were incubated overnight in RPMI supplemented with 10% FCS, as described above. Adhered macrophages were infected with L. amazonensis promastigotes (stationary growth phase) at a 10:1 parasite/macrophage ratio and incubated for 1 h at 34°C, 5% CO2. Free parasites were washed out with 0.01 M phosphate buffered saline (PBS), and the cultures maintained for 24 h at 37°C, 5% CO2. Infected macrophage cultures were treated with different concentrations of the analogs for an additional 24 h at 37°C, 5% CO2. Monolayers were then washed with PBS at 37°C, fixed in methanol, and stained with Giemsa. The number of amastigotes and the percentage of infected macrophages were determined by counting at least 200 cells in duplicate cultures. Endocytic indices were obtained by multiplying the percentage of infected macrophages by the mean number of amastigotes per infected macrophage. The results were expressed as the percentage of surviving macrophages based on endocytic indices of treated and untreated macrophages as reported previously.
The selectivity index was calculated as the ratio of murine peritoneal macrophages CC50 by L. amazonensis intracellular amastigotes IC50.

A short description of assay [5]: Nitric oxide-trapping capacity, cell-free SNAP system. Particulars: 1 mM SNAP, 6 h, rutin 1 mM, pterostilbene 33.2 μM, piceatannol 45 μM, polydatin 29 μM, oxyresveratrol 30.5 μM. As to the method:
A cell-free system with an NO donor was used to test the capacity of resveratrol analogs to trap NO. SNAP (s-nitroso n-acetyl DL-penicillamine, Sigma) liberates nitric oxide in solution, which is then transformed to nitrite in the medium. The addition of a NO scavenger to the SNAP solution results in nitrite decay in the supernatant. […] One milimolar rutin (Sigma), a known NO scavenger, was used as a positive control for this assay. After 6 h of incubation, the nitrite concentration was determined using the Griess method. The results are expressed as the μM concentration of nitrite calculated in comparison with the sodium nitrite standard curve.

In assay [6] the test system is Leishmania amazonensis promastigotes. The assay can be described thus: Cell cycle analysis (PI, flow cytometry). The format is cell-based. Conditions: 48 h; for Effect on the cell cycle of the parasite: at promastigote IC50; for % cells in different stages of the cell cycle: G0/G1 / % cells in different stages of the cell cycle: G2/M / % cells in different stages of the cell cycle: S / % cells in different stages of the cell cycle: Sub-G0 / % cells: Hyperploidies: pterostilbene 17.7 μM, piceatannol 65 μM, polydatin 95.4 μM, oxyresveratrol 65 μM, mean ± SEM. How it is done:
The cells were washed with PBS and fixed in 70% (v/v) ice-cold methanol/PBS for at least 1 h at 4°C. The fixed cells were washed once with PBS and then incubated in PBS supplemented with 10 μg/mL propidium iodide (PI) and 20 μg/mL RNAse at 37°C, 45 min, as reported. For each sample, 10000 events were collected on a BD FACScalibur (Becton and Dickson) and analyzed using CellQuest software.
On the technique in general: A flow cytometer gives signals particle by particle.

The subject of assay [7] is murine peritoneal macrophages. The assay can be described thus: Detection of reactive oxygen species (DHR 123). The format is cell-based, mouse. Particulars: compounds at amastigote IC50. How it is done:
Mice peritoneal macrophages were adhered to 96-well opaque culture plates and then infected or not with L. amazonensis promastigotes. […] The cells were then stained with 50 μM dihydrorhodamine 123 (DHR 123, Life Technologies), and ROS was measured immediately using 500/526 nm excitation/emission wavelengths.

Assay [8] relates to promastigote form of L. infantum. On the set-up: method as in PMID 23103597. Conditions: cited from earlier work.
Assay [9] concerns amastigote form of L. infantum. On the set-up: method as in PMID 23103597. Conditions: cited from earlier work.
[10] abbreviates: macrophages infected with L. amazonensis, 29 μM polydatin, 30.5 μM oxyresveratrol.
Setting [11] is: Leishmania amazonensis, Peritoneal macrophage.
Setting [12] is: L. amazonensis infected macrophages.
The mark [13] stands for this setting: infected and PMA-stimulated macrophages.
Setting [14] is: uninfected macrophages stimulated with 1 μg/mL PMA.
Setting [15] is: uninfected macrophages not stimulated, 33.2 μM pterostilbene, 29 μM polydatin.
Where [16] appears, read: L. amazonensis promastigotes, 48 h treatment, XTT.

Values joined by “and” are separate entries in the source; they are usually repeats but may differ in a detail not shown here. Equal values may be shown once. Read-outs that look alike come from different tables or passages of the source.

Usually IC50 stands for the concentration that inhibits the measured activity by half. On to `C[C@@H]1[C@H](O)[C@@H](C)/C=C/C=C/C=C/C=C/C=C/C=C/C=C/[C@H](O[C@@H]2O[C@H](C)[C@@H](O)[C@H](N)[C@@H]2O)C[C@@H]2O[C@](O)(C[C@@H](O)C[C@@H](O)[C@H](O)CC[C@@H](O)C[C@@H](O)CC(=O)O[C@H]1C)C[C@H](O)[C@H]2C(=O)O` [Amphotericin B, reference compound], for which the IC50 in [1] (Leishmania amazonensis, 48 h) is 0.1 µM.
Consider `CCCCCCCCCCCCCCCCOP(=O)([O-])OCC[N+](C)(C)C` [Miltefosine, reference compound], for which the “Increase of annexin-V positive promastigotes in relation to untreated control” value in [2] is 13.2 fold.
With `Oc1cc(O)cc(/C=C/c2ccc(O)cc2O)c1` [Oxyresveratrol, trans-2,3′,4,5′-tetrahydroxystilbene], the “Decrease of NO production” value in assay [3] (setting [10]) amounted to 2.0 fold. The compound further returned an IC50 in [4] (setting [11]) of 30.5 µM. Also, the “SI (selectivity index; therapeutic index)” value in [4] stood at 4.2. For the same compound, the “Decrease of NO levels (NO scavenging)” value in [5] is given as “did not reduce the levels of NO”. Further, the IC50 in assay [1] (Leishmania amazonensis, 48 h) is 65 µM. Besides, in assay [6], the “Effect on the cell cycle of the parasite” value is “did not alter the cell cycle”, the “% cells in different stages of the cell cycle: G0/G1” value (shortened to “% cells in different stages … G0/G1”) is recorded as 34.380 ± 2.300%, the “% cells in different stages of the cell cycle: G2/M” value (shortened to “% cells in different stages … G2/M”) was found to be 21.073 ± 2.386% and the “% cells in different stages of the cell cycle: S” value was found to be 9.570 ± 0.444%. Moreover, in assay [6], the “% cells in different stages of the cell cycle: Sub-G0” value (from here on “% cells in different stages … Sub-G0”) stood at 10.413 ± 3.895% and the “% cells: Hyperploidies” value is recorded as 24.862 ± 2.500%. For the same compound, the “Reduction of ROS levels” value in assay [7] (setting [12]) was 4.6 fold. In addition, in assay [7] (setting [13]), the “Reduction of ROS levels” value was found to be 4.7 fold. Moreover, the “Reduction of ROS levels” value in assay [7] (setting [14]) amounted to 4.8 fold. Moreover, the “Reduction of ROS levels” value in [7] (uninfected macrophages) worked out at 3.6 fold.
On to `OC[C@H]1O[C@@H](Oc2cc(O)cc(/C=C/c3ccc(O)cc3)c2)[C@H](O)[C@@H](O)[C@@H]1O` [Polydatin, resveratrol-3-O-b-mono-D-glucoside], for which the “Decrease of NO production” value in assay [3] (setting [10]) stood at 6.1 fold; in assay [3] (setting [15]), 2.8 fold. In addition, the IC50 stood at 29 µM in [4] (setting [11]); 95.5 µM in assay [1] (setting [16]); 95 µM in [1] (Leishmania amazonensis, 48 h, L. amazonensis promastigotes, 48 h treatment, XTT). For the same compound, the “SI (selectivity index; therapeutic index)” value in assay [4] was found to be 5.2. In assay [5], the “Decrease of NO levels (NO scavenging)” value is listed as “did not reduce the levels of NO”. Moreover, in assay [6], the “Effect on the cell cycle of the parasite” value is given as “did not alter the cell cycle”. For the same compound, the “% cells in different stages … G0/G1” value in [6] is given as 32.040 ± 2.699%. Also, the “% cells in different stages … G2/M” value in [6] is given as 20.090 ± 2.661%. The “% cells in different stages of the cell cycle: S” value in assay [6] is recorded as 8.698 ± 0.946%. Moreover, in [6], the “% cells in different stages … Sub-G0” value was 13.250 ± 4.747%. In addition, the “% cells: Hyperploidies” value in assay [6] stood at 26.233 ± 1.273%. The “Reduction of ROS levels” value in assay [7] (setting [12]) came out at 2.1 fold; in assay [7] (setting [13]) it was 2.2 fold; in assay [7] (setting [14]), 2.0 fold; in assay [7] (uninfected macrophages), 1.8 fold.
As for `C[C@@H]1O[C@@H](OC[C@H]2O[C@@H](Oc3c(-c4ccc(O)c(O)c4)oc4cc(O)cc(O)c4c3=O)[C@H](O)[C@@H](O)[C@@H]2O)[C@H](O)[C@H](O)[C@H]1O` [rutin, reference compound], the “Decrease of NO levels (NO scavenging)” value in assay [5] is reported as 72%.
Regarding “trans-3,5-dimethoxy-4-hydroxystilbene [Pterostilbene]”, the “Decrease of NO production” value in assay [3] (setting [15]) is on record as 3.8 fold. Moreover, the “Decrease of NO production” value in assay [3] (uninfected macrophages stimulated with LPS, 33.2 μM pterostilbene, 45 μM piceatannol) was determined as 5.3 fold. For the same compound, the IC50 in [4] came out at 33.2 µM. For the same compound, the “LD50 promastigote form of L. infantum” value in assay [8] was 7.6 μg/mL and 29.6 μM. For the same compound, the “Decrease of NO levels (NO scavenging)” value in [5] is 22%. Further, in assay [1] (L. amazonensis promastigotes, 48 h treatment, XTT, listed as pterostilbene), the IC50 stood at 18 µM. Further, the concentration for half-maximal inhibition (IC50) in assay [1] (setting [16]) is 17.7 µM. Further, the “LD50 amastigote form of L. infantum” value in [9] is 10.3 μg/mL and 40.2 μM. For the same compound, in [6], the “Effect on the cell cycle of the parasite” value is “did not alter the cell cycle”, the “% cells in different stages … G0/G1” value is listed as 42.380 ± 1.006%, the “% cells in different stages … G2/M” value is 24.713 ± 1.331% and the “% cells in different stages of the cell cycle: S” value is listed as 7.823 ± 0.915%. Moreover, in [6], the “% cells in different stages … Sub-G0” value amounted to 4.423 ± 0.216% and the “% cells: Hyperploidies” value is recorded as 20.873 ± 0.309%. In assay [7] (setting [12]), the “Reduction of ROS levels” value was 1.6 fold. Moreover, the “Reduction of ROS levels” value in [7] (setting [13]) stood at 1.6 fold. The “Reduction of ROS levels” value in [7] (setting [14]) turned out to be 2.0 fold.

(Values after publication PMC4627731, “Leishmanicidal Effect of Synthetic trans-Resveratrol Analogs” (PLoS ONE, 2015).)
